The text below walks through data of US7846945B2, “Piperdine-based inhibitors of sodium glucose co-transporter 2 and methods of their use” (Lexicon Pharmaceuticals, Inc., priority 2007, dated 2010).

A value given as a limit tells only on which side of the number the result lay.

The assay deals with T1, Human sodium/glucose co-transporter type 2 (SGLT2) (Homo sapiens, UniProt P31639).
T1 construct: HA; expressed in transfected cells
T1 sequence (P31639 1-672): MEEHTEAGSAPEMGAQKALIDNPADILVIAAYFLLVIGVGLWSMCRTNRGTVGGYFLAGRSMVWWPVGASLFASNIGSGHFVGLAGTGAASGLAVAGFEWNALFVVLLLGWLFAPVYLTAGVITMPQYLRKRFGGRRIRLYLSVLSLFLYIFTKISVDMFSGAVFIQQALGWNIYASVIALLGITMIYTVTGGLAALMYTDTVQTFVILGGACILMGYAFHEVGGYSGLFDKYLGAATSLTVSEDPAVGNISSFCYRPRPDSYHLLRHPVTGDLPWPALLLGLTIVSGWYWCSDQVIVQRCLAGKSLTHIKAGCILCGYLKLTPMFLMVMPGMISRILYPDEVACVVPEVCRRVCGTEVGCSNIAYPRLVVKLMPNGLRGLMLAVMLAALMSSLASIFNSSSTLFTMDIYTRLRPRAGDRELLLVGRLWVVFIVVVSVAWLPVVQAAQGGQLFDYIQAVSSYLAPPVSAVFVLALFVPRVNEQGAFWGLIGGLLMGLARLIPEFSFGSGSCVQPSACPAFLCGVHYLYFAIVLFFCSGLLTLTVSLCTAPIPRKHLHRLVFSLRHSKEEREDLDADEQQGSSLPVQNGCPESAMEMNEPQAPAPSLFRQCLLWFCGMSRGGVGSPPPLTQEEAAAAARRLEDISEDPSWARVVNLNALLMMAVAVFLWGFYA
Nature of the assay: In vitro human SGLT2 inhibition assay (14C-AMG uptake). The class given is cell-based. To be noted: HEK293 cells expressing human HA-SGLT2; potent = SGLT2 IC50 of less than about 500 nM; read-out: SGLT2 IC50 (potent SGLT2 inhibitor mark). Here is the method: HEK293 cells were transfected with the human HA-SGLT2-pIRESpuro2 vector and the bulk stable cell line was selected in presence of 0.5 μg/ml of puromycin. Human HA-SGLT2 cells were maintained in DMEM media containing 10% FBS, 1% GPS and 0.5 μg/ml of puromycin.
The HEK293 cells expressing the human HA-SGLT2 were seeded in 384 well plates (30,000 cells/well) in DMEM media containing 10% FBS, 1% GPS and 0.5 μg/ml of puromycin, then incubated overnight at 37 C, 5% CO2. Cells were then washed with uptake buffer (140 mM NaCl, 2 mM KCl, 1 mM CaCl2, 1 mM MgCl2, 10 mM HEPES, 5 mM Tris, 1 mg/ml bovine serum albumin (BSA), pH 7.3). Twenty microliters of uptake buffer with or without testing compounds were added to the cells. Then, 20 microliters of uptake buffer containing ^14C-AMG (100 nCi) were added to the cells. The cell plates were incubated at 37° C., 5% CO2 for 1-2 hours. After washing the cells with uptake buffer, scintillation fluid was added (40 microliters/well) and ^14C-AMG uptake was measured by counting radioactivity using a scintillation coulter (TopCoulter NXT; Packard Instruments).
The IC50 of a compound with regard to a given target is determined by fitting the relevant data, using the Levenburg Marquardt algorithm, to the equation: y=A+((B−A)/(1+((C/x)^D))) wherein A is the minimum y value; B is the maximum y value; C is the IC50; and D is the slope.

For the compound `COC1O[C@@H](c2ccc(Cl)c(Cc3ccc(OC4CCOCC4)cc3)c2)[C@H](O)[C@@H](O)[C@@H]1O` (stereo partly drawn) [(2S,3R,4R,5S)-2-{4-Chloro-3-[4-(tetrahydro-pyran-4-yloxy)-benzyl]-phenyl}-6-methoxy-tetrahydro-pyran-3,4,5-triol], the concentration for half-maximal inhibition (IC50) is less than 500 nM. Turning to `COC1O[C@@H](c2ccc(Cl)c(Cc3ccc(Oc4nccs4)cc3)c2)[C@H](O)[C@@H](O)[C@@H]1O` (stereo partly drawn) [(2S,3R,4R,5S)-2-{4-Chloro-3-[4-(thiazol-2-yloxy)-benzyl]-phenyl}-6-methoxy-tetrahydro-pyran-3,4,5-triol], the IC50 is less than 500 nM.

Take `CCOc1ccc(Cc2cc([C@@H]3O[C@H](SCC(F)(F)F)[C@@H](O)[C@H](O)[C@H]3O)ccc2Cl)cc1` [(2S,3R,4R,5S,6R)-2-[4-Chloro-3-(4-ethoxy-benzyl)-phenyl]-6-(2,2,2-trifluoro-ethylsulfanyl)-tetrahydro-pyran-3,4,5-triol]: the IC50 is less than 500 nM. For `CCOc1ccc(Cc2cc([C@@H]3O[C@H](SCCO)[C@@H](O)[C@H](O)[C@H]3O)ccc2Cl)cc1` [(2S,3R,4R,5S,6R)-2-[4-Chloro-3-(4-ethoxy-benzyl)-phenyl]-6-(2-hydroxy-ethylsulfanyl)-tetrahydro-pyran-3,4,5-triol], the IC50 was less than 500 nM. On to `CCOc1ccc(Cc2cc([C@@H]3O[C@H](SC4CCOC4C)[C@@H](O)[C@H](O)[C@H]3O)ccc2Cl)cc1` (stereo partly drawn) [(2S,3R,4R,5S,6R)-2-[4-Chloro-3-(4-ethoxy-benzyl)-phenyl]-6-(2-methyl-tetrahydro-furan-3-ylsulfanyl)-tetrahydro-pyran-3,4,5-triol], for which the half-inhibitory concentration (IC50) was less than 500 nM.

For the compound `CCOc1ccc(Cc2cc([C@@H]3O[C@H](SCCC(C)C)[C@@H](O)[C@H](O)[C@H]3O)ccc2Cl)cc1` [(2S,3R,4R,5S,6R)-2-[4-Chloro-3-(4-ethoxy-benzyl)-phenyl]-6-(3-methyl-butylsulfanyl)-tetrahydro-pyran-3,4,5-triol], the half-maximal inhibitory concentration (IC50) is less than 500 nM. Take `CCOc1ccc(Cc2cc([C@@H]3O[C@H](SCc4ccco4)[C@@H](O)[C@H](O)[C@H]3O)ccc2Cl)cc1` [(2S,3R,4R,5S,6R)-2-[4-Chloro-3-(4-ethoxy-benzyl)-phenyl]-6-(furan-2-ylmethylsulfanyl)-tetrahydro-pyran-3,4,5-triol]: the IC50 was less than 500 nM. Regarding `CCOc1ccc(Cc2cc([C@@H]3O[C@H](SC4CCCC4)[C@@H](O)[C@H](O)[C@H]3O)ccc2Cl)cc1` [(2S,3R,4R,5S,6R)-2-[4-Chloro-3-(4-ethoxy-benzyl)-phenyl]-6-cyclopentylsulfanyl-tetrahydro-pyran-3,4,5-triol], the 50% inhibitory concentration (IC50) is less than 500 nM. On to `CCOc1ccc(Cc2cc([C@@H]3O[C@H]([S+]([O-])CC)[C@@H](O)[C@H](O)[C@H]3O)ccc2Cl)cc1` (stereo partly drawn) [(2S,3R,4R,5S,6R)-2-[4-Chloro-3-(4-ethoxy-benzyl)-phenyl]-6-ethanesulfinyl-tetrahydro-pyran-3,4,5-triol], for which the IC50 was less than 500 nM. The result for `CCOc1ccc(Cc2cc([C@@H]3O[C@H](SCC)[C@@H](O)[C@H](O)[C@H]3O)ccc2Cl)cc1` [(2S,3R,4R,5S,6R)-2-[4-Chloro-3-(4-ethoxy-benzyl)-phenyl]-6-ethylsulfanyl-tetrahydro-pyran-3,4,5-triol] reads less than 500 nM. Turning to `CCOc1ccc(Cc2cc([C@@H]3O[C@H]([S+](C)[O-])[C@@H](O)[C@H](O)[C@H]3O)ccc2Cl)cc1` (stereo partly drawn) [(2S,3R,4R,5S,6R)-2-[4-Chloro-3-(4-ethoxy-benzyl)-phenyl]-6-methanesulfinyl-tetrahydro-pyran-3,4,5-triol], the IC50 was less than 500 nM. Consider `CCOc1ccc(Cc2cc([C@@H]3O[C@H](SC)[C@@H](O)[C@H](O)[C@H]3O)ccc2Cl)cc1` [(2S,3R,4R,5S,6R)-2-[4-Chloro-3-(4-ethoxy-benzyl)-phenyl]-6-methylsulfanyl-tetrahydro-pyran-3,4,5-triol], for which the concentration for half-maximal inhibition (IC50) is less than 500 nM. As for `CCOc1ccc(Cc2cc([C@@H]3O[C@H](Oc4ccccc4)[C@@H](O)[C@H](O)[C@H]3O)ccc2Cl)cc1` [(2S,3R,4R,5S,6R)-2-[4-Chloro-3-(4-ethoxy-benzyl)-phenyl]-6-phenoxy-tetrahydro-pyran-3,4,5-triol], the figure is less than 500 nM; as for `CO[C@H]1O[C@@H](c2ccc(Cl)c(Cc3ccc(O[C@@H]4CCOC4)cc3)c2)[C@H](O)[C@@H](O)[C@@H]1O` [(2S,3R,4R,5S,6S)-2-(4-Chloro-3-{4-[(R)-(tetrahydro-furan-3-yl)oxy]-benzyl}-phenyl)-6-methoxy-tetrahydro-pyran-3,4,5-triol], less than 500 nM; as for `CCOc1ccc(Cc2cc([C@@H]3O[C@H](OCCO)[C@@H](O)[C@H](O)[C@H]3O)ccc2Cl)cc1` [(2S,3R,4R,5S,6S)-2-[4-Chloro-3-(4-ethoxy-benzyl)-phenyl]-6-(2-hydroxy-ethoxy)-tetrahydro-pyran-3,4,5-triol], less than 500 nM. Turning to `CCOc1ccc(C(O)c2cc([C@@H]3O[C@H](OC)[C@@H](O)[C@H](O)[C@H]3O)ccc2Cl)cc1` (stereo partly drawn) [(2S,3R,4R,5S,6S)-2-{4-Chloro-3-[(4-ethoxy-phenyl)-hydroxy-methyl]-phenyl}-6-methoxy-tetrahydro-pyran-3,4,5-triol], the IC50 was less than 500 nM. On to `CCOc1ccc(Cc2cc([C@H]3[C@H](O)[C@@H](O)[C@H](O)CN3Cc3ccccc3)ccc2Cl)cc1` [(2S,3S,4S,5R)-1-Benzyl-2-[4-chloro-3-(4-ethoxy-benzyl)-phenyl]-piperidine-3,4,5-triol], for which the IC50 is less than 500 nM. Regarding `CCOc1ccc(Cc2cc([C@H]3[C@H](O)[C@@H](O)[C@H](O)CN3CC(C)C)ccc2Cl)cc1` [(2S,3S,4S,5R)-2-[4-Chloro-3-(4-ethoxy-benzyl)-phenyl]-1-isobutyl-piperidine-3,4,5-triol], the concentration for half-maximal inhibition (IC50) is less than 500 nM.

With `C=CCNC(=O)N1C[C@@H](O)[C@H](O)[C@@H](O)[C@@H]1c1ccc(Cl)c(Cc2ccc(OCC)cc2)c1` [(2S,3S,4S,5R)-2-[4-Chloro-3-(4-ethoxy-benzyl)-phenyl]-3,4,5-trihydroxy-piperidine-1-carboxylic acid allyl amide], the concentration for half-maximal inhibition (IC50) is less than 500 nM.

Take `CCOc1ccc(Cc2cc(C3NC(CO)[C@@H](O)[C@H](O)[C@H]3O)ccc2Cl)cc1` (stereo partly drawn) [(3S,4R,5R)-2-[4-Chloro-3-(4-ethoxy-benzyl)-phenyl]-6-hydroxymethyl-piperidine-3,4,5-triol]: the IC50 was less than 500 nM. With `CCOc1ccc(Cc2cc([C@@H]3OC(OCc4ccccc4)[C@@H](O)[C@H](O)[C@H]3O)ccc2Cl)cc1` (stereo partly drawn) [(3S,4R,5R,6S)-2-Benzyloxy-6-[4-chloro-3-(4-ethoxy-benzyl)-phenyl]-tetrahydro-pyran-3,4,5-triol], the concentration for half-maximal inhibition (IC50) was less than 500 nM. Regarding `CCOc1ccc(Cc2cc([C@@H]3O[C@H](SC[C@H](N)C(=O)O)[C@@H](O)[C@H](O)[C@H]3O)ccc2Cl)cc1` [(R)-2-Amino-3-{(2R,3S,4R,5R,6S)-6-[4-chloro-3-(4-ethoxy-benzyl)-phenyl]-3,4,5-trihydroxy-tetrahydro-pyran-2-ylsulfanyl}-propionic acid], the concentration for half-maximal inhibition (IC50) was less than 500 nM. As for `COC1O[C@@H](c2ccc(Cl)c(Cc3ccc(OC(=S)N(C)C)cc3)c2)[C@H](O)[C@@H](O)[C@@H]1O` (stereo partly drawn) [Dimethyl-thiocarbamic acid O-{4-[2-chloro-5-((2S,3R,4R,5S)-3,4,5-trihydroxy-6-methoxy-tetrahydro-pyran-2-yl)-benzyl]-phenyl} ester], the figure is less than 500 nM.
